Experimental data as given in patent US12071469B2, “Peptide compounds for suppressing inflammation” (Duke University, priority 2011, dated 2024).
“And” between values parts separate entries of the source, which are not always exact repeats. Equal values may be shown once. “Also recorded” adds a separate entry of the source.

What was measured:
[1] = system: mixed glial primary culture; assay: Suppression of TNF-α release in mixed glial primary culture after exposure to LPS; format: cell-based, murine; settings: FIGS. 11A and 11B
Method: In vitro methods have been developed using cultured cells for evaluating the ability of a compound, such as a peptide, to suppress glial activation. Laskowitz et al., (2001) Exp. Neurol., 167:74-85. Glial cell cultures were grown and maintained under standard conditions. Cultured glial cells may include primary murine mixed glial cell cultures, murine BV-2 microglial cells, and human C3 microglial cells. Adherent glial cells were washed with OptiMEM® medium (available from Invitrogen Corp.) to remove serum and covered with fresh OptiMEM® medium containing peptide.
Larger peptides or proteins may need to be tested at higher concentrations to observe measurable suppression of glial activation. If using primary murine cells and BV-2 cells, cells are stimulated with 100 ng/ml E. coli LPS (available from Sigma-Aldrich Co.), and supernatant is collected six hours after LPS stimulation and assayed for nitrite (using a colorimetric Griess reagent system, available from Promega Corp.) and/or TNF-α (using a solid-phase ELISA kit, available from Invitrogen Corp.). If using human C3 cells, cells are stimulated with 200 μg/ml polyinosinic acid 5′ (available from Sigma-Aldrich Co.), and supernatant is collected 5 days after stimulation and assayed for TNF-α using a solid-phase ELISA kit (available from Invitrogen Corp.).
The protective activity against brain injury-downregulating CNS inflammatory response was determined for ApoE mimetic peptides, VR-55 (SEQ ID NO: 4), VL-5-1 (SEQ ID NO: 5) and VL-5-3 (SEQ ID NO: 10).

[2] = Mouse brain PK of VSRRR (CNS penetration) by LC/MS; format: in vivo; settings: for Brain Pilot, Ratio to Heavy / Brain Pilot, fmol/mg (tissue) / Brain Pilot, pg/mg (tissue): individual mouse brains, single-point internal standard quantitation; for Single-Dosed Brain PK, fmol analyte/mg tissue / Single-Dosed Brain PK, pg/mg of tissue: single dose 0.8 mg/kg, average of 5 animals
Method: Mouse Brain PK on Therapeutic Peptide, VSRRR—Sample Preparation Procedure
Mice brains were weighed in a 1.5 mL Eppendorf tube. The entire brain was transferred to a 14 mL culture tube. 1 mL of 8 M urea in 50 mM ammonium formate (pH 10) with 2.5 pmol/mL SIL peptide per 100 mg wet tissue weight was added. For standard controls and QCs, 10 μL of peptide standard per every 100 mg of brain tissue (1%) was added with 990 μL of the aforementioned buffer to bring to a 1 mL total volume for every 100 mg of tissue. A tissue tearor was used on each sample for about 20 sec. 1.5 mL of the sample was transferred to a 2-mL Eppendorf tube. Each sample was probe sonicated for 3 bursts of 5 sec per burst. The sample was then heated at 37° C. for 30 min. The sample was centrifuged for 30 min at 15,000 rpm. Very little precipitate was visible at the bottom of each tube and avoided when pipetting 1 mL of the sample (out of 1.5 mL total volume) and placing directly onto an OASIS® plate. Salts and proteins were removed using the OASIS® HLB Solid Phase Extraction (SPE) protocol described above for the plasma sample. After the extraction, the samples were dried down in a Speed Vac and reconstitute in 25 μL of 1% ACN/0.1% TFA/0.02% HFBA. 3 μL of the sample was injected into a SYNAPT™ G2 HDMS™ (Waters Corp.) using Full Scan MS method, with a run time of 16.5 min total. Peptide(s) of interest were monitored between 3-8 min.
Table 5 and FIG. 10 show the average amount of peptide in the CNS sample from 5 animals over time after a single dosing of 0.8 mg/kg of the peptide.
The analyte concentrations were calculated from a single-point internal standard quantitation. […] The analyte concentrations were calculated from a 7-point standard curve calibration curve equation generated with samples between 1.4 pg analyte/mg tissue and 89.2 pg/mg (2× serial dilutions). The inter-animal reproducibility for the brain analyses is high ([…] 21% CV). The drug molecule in the single-dosed brain Cmax is about 9 pg analyte/mg tissue.

For Ac-VSRRR-NH2 [VR-55, Ac-VSRRR-NH2], the “release of inflammatory cytokine TNF-α” value [1] was “inhibition of microglial TNF-α secretion; also recorded: suppress the release of inflammatory cytokine TNF-α”, the “Brain Pilot, Ratio to Heavy” value ([2]; 3 min) was 0.245 and 0.371 and the “Brain Pilot, fmol/mg (tissue)” value ([2]; 3 min) was 15 fmol/mg (tissue) and 23 fmol/mg (tissue). The “Brain Pilot, pg/mg (tissue)” value ([2]; 3 min) was 11 pg/mg (tissue) and 17 pg/mg (tissue), the “Brain Pilot, Ratio to Heavy” value ([2]; 10 min) was 0.157 and 0.435 and the “Brain Pilot, fmol/mg (tissue)” value ([2]; 10 min) was 10 fmol/mg (tissue) and 27 fmol/mg (tissue). For the same substance, the “Brain Pilot, pg/mg (tissue)” value ([2]; 10 min) was 7 pg/mg (tissue) and 19 pg/mg (tissue), the “single-dosed brain Cmax” value ([2]; mouse brain, single dose) was “about 9 pg analyte/mg tissue” and the “Single-Dosed Brain PK, fmol analyte/mg tissue” value ([2]; mouse brain, 1 min) was 10.91 fmol analyte/mg tissue. For the same substance, the “Single-Dosed Brain PK, pg/mg of tissue” value ([2]; mouse brain, 1 min) was 7.79 pg/mg of tissue, the “Single-Dosed Brain PK, fmol analyte/mg tissue” value ([2]; mouse brain, 3 min) was 12.30 fmol analyte/mg tissue and the “Single-Dosed Brain PK, pg/mg of tissue” value ([2]; mouse brain, 3 min) was 8.79 pg/mg of tissue. The “Single-Dosed Brain PK, fmol analyte/mg tissue” value ([2]; mouse brain, 5 min) was 11.26 fmol analyte/mg tissue, the “Single-Dosed Brain PK, pg/mg of tissue” value ([2]; mouse brain, 5 min) was 8.04 pg/mg of tissue and the “Single-Dosed Brain PK, fmol analyte/mg tissue” value ([2]; mouse brain, 10 min) was 11.83 fmol analyte/mg tissue. For the same substance, the “Single-Dosed Brain PK, pg/mg of tissue” value ([2]; mouse brain, 10 min) was 8.44 pg/mg of tissue, the “Single-Dosed Brain PK, fmol analyte/mg tissue” value ([2]; mouse brain, 15 min) was 10.56 fmol analyte/mg tissue and the “Single-Dosed Brain PK, pg/mg of tissue” value ([2]; mouse brain, 15 min) was 7.54 pg/mg of tissue. For the same substance, the “Single-Dosed Brain PK, fmol analyte/mg tissue” value ([2]; mouse brain, 30 min) was 8.87 fmol analyte/mg tissue, the “Single-Dosed Brain PK, pg/mg of tissue” value ([2]; mouse brain, 30 min) was 6.33 pg/mg of tissue and the “Single-Dosed Brain PK, fmol analyte/mg tissue” value ([2]; mouse brain, 60 min) was 7.64 fmol analyte/mg tissue. The “Single-Dosed Brain PK, pg/mg of tissue” value ([2]; mouse brain, 60 min) was 5.46 pg/mg of tissue and the CNS penetration ([2]; preliminary data, brain pilot) was “CNS penetration”.
